Data set [1] is described as follows: Biodistribution in ICR mice after intravenous injection, gamma counter (Experimental Example 3). Format: in vivo. The conditions noted are these: ICR male mice, i.v., 1 μCi/100 μL per mouse.
The nature of data set [2]: Stability in normal mouse serum at 37 °C, radio-TLC (Experimental Example 2). The data set is classed as in vitro ADME.

For the compound `[N-]=[N+]=NCCOCCOCCOCCNC(=O)c1ccc([125I])cc1` [실시예 1, 125I이 표지된 N-(2-(2-(2-(2-아지도에톡시)에톡시)에톡시)에틸)-4-아이오도벤즈아마이드], the “time to absorption and accumulation in liver and kidney” value in data set [1] is reported as no more than 15 min. The tissue uptake at 1 h in data set [1] (liver and kidney, iv, 1 uCi/animal, within 1 h, read-out: concentration (liver and kidney)) was no more than 20 %ID/g. The tissue uptake at 2 h in data set [1] (liver and kidney, iv, 1 uCi/animal, within 2 h, read-out: concentration (liver and kidney)) was no more than 10 %ID/g. Moreover, the “accumulation in liver and kidney” value in data set [1] (within 15 min) is recorded as “높은 농도로 집적”. For the same compound, the “excretion from the body” value in data set [1] (within 2 h) is no less than 90%. The “decrease of radiochemical purity in mouse serum” value in data set [2] (after 5 h) is “거의 감소하지 않고”. Also, the remaining at 5 h in data set [2] (after 5 h, read-out: radiochemical purity in mouse serum) was no less than 95%. In addition, the remaining at 24 h in data set [2] (after 24 h, read-out: radiochemical purity in mouse serum) is no less than 90%.

The values are drawn from patent KR20170031305A, “방사성 요오드 표지 아자이드 추적체, 이의 제조방법 및 이를 유효성분으로 포함하는 방사성 요오드 표지 또는 의료 진단용 조성물” (한국원자력연구원, priority 2015, dated 2017).
